According to PubChem BioAssay AID179 (DTP/NCI, 2004):
Values joined by “and” are separate entries in the source; they are usually repeats but may differ in a detail not shown here. Identical values can stand only once. Active and inactive are the calls of the source.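 The calls were made as follows: active = compounds giving half or more protection of infected cells from virus-caused growth loss, again on retest; inactive = the rest.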

Test system: CEM cells HIV-1 protection, formazan growth assay
Experiment: NCI AIDS Antiviral Assay
Settings: for IC50: measured here: growth of uninfected CEM cells
Procedure, shortened: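 Screen of anti-HIV-1 activity in human CEM cells using a formazan-based growth measurement at five drug concentrations. Hits with 50% or greater protection were repeated, and confirmation required reproducible complete protection.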

## NC(=O)c1c(Cl)nc2n1CCS2
  EC50: > 200 µM
  IC50: > 200 µM

## O=C1c2ccccc2Sc2ccccc2N1C(=O)C1CC1
  EC50: 39.8 µM
  IC50: 55 µM

## CNC(=O)Oc1ccc(C(=O)OCCO)cc1
  EC50: > 200 µM
  IC50: 95.5 µM

## COc1ccc2c(c1)NC(=O)C(O)(Cc1ccccc1)C2=O (stereo unspecified)
  EC50: > 200 µM
  IC50: > 200 µM

## CC(C)CC(NC(=O)C(Cc1ccccc1)NC(=O)CNC(=O)CNC(=O)C(N)Cc1ccc(O)cc1)C(=O)NC1C(O)OC(CO)C(O)C1O (stereo unspecified)
  EC50: > 2190 µM
  IC50: > 2190 µM

## CCOC(=O)CC1CCN(C(=O)c2ccccc2)C2Cc3c([nH]c4ccccc34)C12C[N+](=O)[O-] (stereo unspecified)
  EC50: > 200 µM
  IC50: 85.1 µM

## Cc1ccc([N+](=O)[O-])cc1/C(C#N)=C/c1ccccc1
  EC50: > 200 µM
  IC50: 33.1 µM

## [Cl][Ho]([Cl])[Cl]
  EC50: > 162 µM
  IC50: > 162 µM

## CCO/C=C1\C(=O)N(C(C)=O)c2cc(OC)c(OC)cc21
  EC50: > 200 µM
  IC50: 26.9 µM

## CC(O)c1ccc2c(c1)C(O)C[C@H]1[C@](C)(CO)CCC[C@]21C (stereo partly specified)
  EC50: > 200 µM
  IC50: 141 µM

## Cc1oc2nc(N(C)C)nc(Cl)c2c1C
  outcome: inactive

## CC(C)C(NCc1c2ccccc2nc2ccccc12)C(=O)O (stereo unspecified)
  outcome: inactive

## COc1cc2c(c3oc(=O)c4c(c13)CCC4=O)[C@@H]1C=CO[C@@H]1O2
  EC50: > 100 µM
  IC50: 69.2 µM

## CN(C)C(=C1c2cc([N+](=O)[O-])ccc2-c2ccc([N+](=O)[O-])cc21)N(C)C
  EC50: > 200 µM
  IC50: 10.7 µM

## Cc1nc2c(ccc3ncccc32)[nH]1
  outcome: inactive

## O=C(CN1CCN(c2ccccn2)CC1)N1CCCn2c1nc1ccccc1c2=O
  EC50: > 200 µM
  IC50: > 200 µM

## COc1ccc2oc(OC)c(CC=C(C)C)c(=O)c2c1C
  EC50: > 200 µM
  IC50: 141 µM

## COC(=O)c1ccc(C(=O)OC)c2nc3cc(C)ccc3nc12
  EC50: > 219 µM
  IC50: > 219 µM

## CSc1ccc2nncc(SC)c2c1
  EC50: > 158 µM
  IC50: 57.5 µM

## CCc1nc(N)c2nc(-c3cccs3)oc2n1
  EC50: > 200 µM
  IC50: 182 µM

## O=C1CCCCC/C=C2/CC[C@H](Sc3ccccc3)[C@@H]12
  EC50: > 200 µM
  IC50: 53.7 µM

## COc1cccc(/C=N/[N-]C(N)=O)c1[O-].[Ni+2].[OH3+].c1ccc(-c2ccccn2)nc1
  outcome: inactive

## COc1cc(-c2cc(-c3cc(C)cc(Cl)c3O)nc3ncnc(N)c23)ccc1O
  EC50: > 200 µM
  IC50: 10.7 µM

## NN=C1/C(=C\c2ccccc2)CCC/C1=C/c1ccccc1
  EC50: > 64.6 µM
  IC50: > 64.6 µM

## Cc1ccc2c(c1)SC(c1cc3c(cc1Br)OCO3)S2 (stereo unspecified)
  EC50: > 50.1 µM
  IC50: > 50.1 µM

## O=[N+]([O-])c1ccc(N=Nc2c(O)c(N=Nc3cc([N+](=O)[O-])cc([N+](=O)[O-])c3O)cc(N=Nc3cc(S(=O)(=O)O)cc4cc(S(=O)(=O)O)cc(O)c34)c2O)cc1
  EC50: 16.6 µM
  IC50: 50.1 µM

## c1ccc(P(CCP(CCP(c2ccccc2)c2ccccc2)c2ccccc2)CCP(c2ccccc2)c2ccccc2)cc1 (stereo unspecified)
  EC50: > 10.7 µM
  IC50: > 10.7 µM

## CCc1nnc2sc(=S)[nH]n12
  outcome: inactive

## Cc1cccc(C(C)C)c1NC(=O)CC1C(=O)Nc2ccccc2S1(=O)=O (stereo unspecified)
  EC50: > 7.08 µM
  IC50: > 7.08 µM

## Nc1cc2cccc[n+]2c2cccc(Cl)c12
  EC50: > 200 µM
  IC50: 4.47 µM

## OC1CSc2ccccc2-n2cccc21 (stereo unspecified)
  EC50: > 138 µM
  IC50: 110 µM

## O=c1c(O)c(-c2ccc(O)c(O)c2)oc2cc(O)ccc12
  EC50: > 550 µM
  IC50: 55 µM and 25.7 µM

## C[C@H](CCC(=O)O)[C@H]1CC[C@H]2[C@@H]3[C@H](O)C[C@@H]4C[C@H](O)CC[C@]4(C)[C@H]3CC[C@]12C
  EC50: > 200 µM
  IC50: 39.8 µM

## CN1CCC(OC(=O)Oc2ccccc2)(c2ccccc2)CC1
  EC50: > 200 µM
  IC50: 30.9 µM

## CC1(C)OC2OC(COC(=S)SSC(=S)OCC3OC4OC(C)(C)OC4C4OC(C)(C)OC34)C3OC(C)(C)OC3C2O1 (stereo unspecified)
  EC50: > 200 µM
  IC50: 5.62 µM

## Clc1nc(Nc2nc3ccccc3[nH]2)nc(Cl)c1Cc1ccccc1
  outcome: inactive

## CSC1=C(C#N)C(=O)N(c2ccc(C)cc2)C(=S)C1C#N (stereo unspecified)
  EC50: > 200 µM
  IC50: 174 µM

## CC1(C)O[C@H]2OC(CO)C(N=[N+]=[N-])[C@H]2O1 (stereo partly specified)
  EC50: > 200 µM
  IC50: > 200 µM

## CC(=O)Nc1ccc(C(=O)CCC(NC(C)=O)(C(=O)O)C(=O)O)cc1
  EC50: > 200 µM
  IC50: > 200 µM

## O=C(C[n+]1ccncc1)c1ccc2c(c1)CCCC2
  EC50: 0.0631 µM
  IC50: > 200 µM

## CC(=O)NC(=O)CC(=O)c1ccccc1
  EC50: > 631 µM
  IC50: > 631 µM

## FC(F)(F)c1ccccc1C1SCc2nc3ccccc3n21 (stereo unspecified)
  outcome: inactive

## CNC(=O)C1CCC(=O)N1CN(C(C)=O)c1ccccc1 (stereo unspecified)
  EC50: > 200 µM
  IC50: > 200 µM

## C[C@]12CC[C@@H]3c4ccc(OS(=O)(=O)O)cc4CC[C@H]3[C@@H]1CCC2=O
  outcome: inactive

## N#CC(NCc1cccc(CNC(C#N)c2ccccc2)c1)c1ccccc1 (stereo unspecified)
  EC50: > 200 µM
  IC50: 89.1 µM

## CON1C(=O)C(c2cccs2)=C2SCC=C21
  EC50: > 170 µM
  IC50: 4.27 µM

## CN(C)CCN1C(=O)N(CCN(C)C)c2c3cc(O)ccc3nc3c([N+](=O)[O-])ccc1c23
  EC50: > 200 µM
  IC50: 2.34 µM

## c1ccc2nn(C3CCCCO3)nc2c1 (stereo unspecified)
  EC50: > 200 µM
  IC50: > 200 µM

## Cc1ccc2c(c1C)C(=O)C1(Cc3cc4c(cc3C1=O)CCC4)C2 (stereo unspecified)
  EC50: > 100 µM
  IC50: > 100 µM

## CC(=O)OC1CC2(c3ccccc3)C(=O)c3ccccc3N2O1 (stereo unspecified)
  EC50: > 115 µM
  IC50: > 115 µM

## COC1(C(C)(C)C)C=C(C(C)(C)C)P(=O)(O)O1 (stereo unspecified)
  EC50: > 200 µM
  IC50: > 200 µM

## CCOC(=O)C(N=O)C(=O)c1ccccc1 (stereo unspecified)
  outcome: inactive

## CN(C)[C@@H]1C(=O)C(C(=O)NCNC2(C(=O)O)CCCC2)=C(O)[C@@]2(O)C(=O)C3=C(O)c4c(O)cccc4[C@@](C)(O)[C@H]3C[C@@H]12
  EC50: > 214 µM
  IC50: 117 µM

## O/N=C\C(=Nc1ccc(Cc2ccc(N=C(/C=N\O)NO)cc2)cc1)NO
  EC50: > 355 µM
  IC50: 39.8 µM

## Cc1ccc2nnn3c(=N)nc(N)nc3c2c1
  EC50: > 79.4 µM
  IC50: > 79.4 µM

## CCOP(=O)(OCC)C(Nc1ccc(Cl)cc1)c1ccc(F)cc1 (stereo unspecified)
  outcome: inactive

## COC(=O)CCc1ccc2c(c1)CCC2
  EC50: > 200 µM
  IC50: > 200 µM

## Cc1ccc(NC(=S)SCCC(=O)O)cc1
  outcome: inactive

## O=C1NCC2(CCNCC2)N1
  EC50: > 200 µM
  IC50: > 200 µM

## O=C1Nc2ccccc2C12CCCC2
  outcome: inactive

## CCOC(=O)CCC(NC(=O)c1ccc(OCc2ccc3nc(OC)c(OC)nc3c2)cc1)C(=O)OCC (stereo unspecified)
  EC50: > 200 µM
  IC50: 41.7 µM

## Cc1nn(C(=O)c2ccc(Cl)cc2)c2c1C(c1ccco1)SC(N)=N2 (stereo unspecified)
  EC50: 170 µM
  IC50: > 200 µM

## CC1Cc2c(Br)nc(N)nc2NC1=O (stereo unspecified)
  EC50: > 200 µM
  IC50: > 200 µM

## O=S1(=O)CCCCO1
  outcome: inactive

## Cc1cc2c(C(C)C)c(O)c(O)c3coc(/c1=c1/c(C)cc4c(C(C)C)c(=O)c(=O)c5coc1c45)c32
  EC50: > 53.7 µM
  IC50: 8.91 µM

## O=C1C2CC=CCC2C(=O)N1n1c(-c2ccccc2)n[nH]c1=O (stereo unspecified)
  EC50: > 200 µM
  IC50: > 200 µM

## c1ccc(-c2csc3[n+]2CCN3)cc1
  EC50: > 200 µM
  IC50: 126 µM

## O=C(O/N=C1/CCCC/C1=C\c1ccccc1)c1ccc(Cl)c(Cl)c1
  outcome: inactive

## COc1ccc(C2c3cc4c(cc3C(O)C3CCC(=O)N23)OCO4)cc1 (stereo unspecified)
  EC50: > 200 µM
  IC50: > 200 µM

## Cn1c(=O)nc2n(-c3ccc(F)cc3)c3ccccc3nc-2c1=O
  outcome: inactive

## Clc1ccc2nncc(N3CC3)c2c1
  outcome: inactive

## COC(=O)C/C(C(=O)OC)=C1\CCC2=C1N1CCCC1C2(CC(=O)OC)C(=O)OC (stereo unspecified)
  EC50: > 162 µM
  IC50: > 162 µM

## CCCCN1C(=O)C2c3[nH]c4ccccc4c3C3CCCCC3C2C1=O (mixture of isomers)
  outcome: inactive

## CSc1cc(Cl)c(C(=O)Nc2ccccc2)cc1S(=O)(=O)n1cc[nH]c1=O
  EC50: > 200 µM
  IC50: > 200 µM

## c1ccc(C2=C(c3ccccc3)C23SCCS3)cc1
  EC50: > 200 µM
  IC50: 33.9 µM

## COc1ccc(Cl)cc1C(=O)c1cc(Cl)cc(S(=O)(=O)O)c1OC
  EC50: > 617 µM
  IC50: 427 µM

## CC(C)(C)C(=O)/C=C/c1cccc(Oc2ccccc2)c1
  EC50: > 18.6 µM
  IC50: > 18.6 µM

## OCC12C3C4C5C3C1C5C42 (stereo unspecified)
  EC50: > 200 µM
  IC50: > 200 µM

## COc1ccc(NC(=O)COC(=O)c2cccc3c(=O)c4ccccc4[nH]c23)cc1
  outcome: inactive

## NC(CCc1nc(-c2ccccc2)cs1)C(=O)O (stereo unspecified)
  outcome: inactive

## C=CCN1CN(c2ccccc2)C2(CCN(CCCC3(c4ccc(F)cc4)OCCO3)CC2)C1=O
  EC50: > 200 µM
  IC50: 11.5 µM

## CC(=O)OC1CCn2c1nc1cc([N+](=O)[O-])c(C)cc12 (stereo unspecified)
  EC50: > 200 µM
  IC50: > 200 µM

## O=C1NC(=O)N2CCSC2(Cc2ccccc2)N1 (stereo unspecified)
  outcome: inactive

## O=C1C=CC(=C(c2ccc(O)cc2)c2c(Br)c(Br)c(Br)c(Br)c2S(=O)(=O)O)C=C1
  outcome: inactive

## CC(C)CCCC(C)[C@H]1CC[C@H]2[C@@H]3CC[C@H]4C[C@@H](CCC=C(c5cc(Cl)c(O)c(C(=O)OCc6ccccc6)c5)c5cc(Cl)c(O)c(C(=O)OCc6ccccc6)c5)CC[C@]4(C)[C@H]3CC[C@]12C (stereo partly specified)
  outcome: inactive

## O=C1c2c(ccc3c2CCC3)CC12Cc1ccccc1C2
  EC50: > 200 µM
  IC50: > 200 µM

## Cn1c(-c2cccs2)cc(-c2ccsc2)c1-c1ccsc1
  EC50: > 200 µM
  IC50: > 200 µM

## O=C(CCc1nc(=S)[nH][nH]1)Nc1cc(Cl)c(Cl)cc1Cl
  EC50: > 195 µM
  IC50: > 195 µM

## O=C(c1ccccc1)c1ccc2c(c1)N=C(c1ccc(Cl)c(Cl)c1)CC(c1ccc3ccccc3c1)N2 (stereo unspecified)
  EC50: > 13.8 µM
  IC50: > 13.8 µM

## COC(=O)C1(C(=O)OC)N=C(C)OC1/C=C/c1ccccc1 (stereo unspecified)
  EC50: > 200 µM
  IC50: > 100 µM

## CC1=C(C)CP(=O)(c2ccccc2)C1
  EC50: 0.0631 µM
  IC50: > 200 µM

## CC(C)(C)NC(=O)C12C3C4C1C1C2C3C41C(=O)NC(C)(C)C (stereo unspecified)
  outcome: inactive
